Entries after “also recorded” stand apart in the source; their conditions may differ.
Legend:
human Nav1.6 [1] = biological target: T1, human Nav1.6 (Homo sapiens, UniProt Q9UQD0); experiment: ATX-II activated late (persistent) INa block, automated patch clamp in HEK cells; format: cell-based
T1 construct: HEK-293 cell lines stably expressing human Nav1.6 (NP_055006) were used; expressed in transfected cells

human Nav1.6 [2] = biological target: T1, human Nav1.6; experiment: Peak INa tonic block (TB), automated patch clamp in HEK cells; format: cell-based; details: ratio of peak INa (TB) to persistent INa IC50
[3] = test system: psychomotor seizures induced by 6-Hz electrical stimulation in CD-1 mice; experiment: 6-Hz psychomotor seizure model (32 and 44 mA); format: in vivo, mouse
Description: The 6-Hz test is a validated model of focal seizures for evaluating the anti-seizure potential of compounds. The 6-Hz seizure model can be performed at different stimulation intensities (32 or 44 mA), with the higher intensity (44 mA) used as a model of pharmacoresistant seizures. The positive control valproate is an approved anti-seizure medicine (ASM).
This study evaluated the efficacy of Compound 1 in attenuating psychomotor seizures induced by 6-Hz electrical stimulation at two different stimulation intensities (32 and 44 mA) in wild-type CD-1 mice. Psychomotor seizures are defined as the expression of at least one of the following behaviors: stun/immobility, forelimb clonus, straub tail or lateral head movement within 30 seconds of the stimulus. Protection is defined as a complete absence of the above behaviors within 30 seconds of the stimulus. Doses of Compound 1 used were 1 mg/kg, 3 mg/kg and 6 mg/kg administered orally. Valproate (600 mg/kg, administered intraperitoneally) was used as a positive control.
Male CD-1 mice (Charles River Laboratories; St. Constant, Quebec, CAN) were used for the study. Body weights at the time the experiment was carried out were 30-40 grams. The mice were group-housed in polycarbonate cages according to standard operating procedures. Animals were maintained on a 12-hour light/12 hour dark cycle, with all experimental activities occurring during the light phase. Food and water were available ad libitum. Mice acclimated to the test facility for at least 72 hours prior to testing.
Treatment was conducted using Compound 1 and 35% 2-hydroxypropyl-β-cyclodextrin (35% HPBCD, used as a negative control). Compound 1 stock solution was prepared fresh each experiment day in 35% HPBCD. […] Valproate was prepared fresh each experiment day in a vehicle of saline and dosed at 10 mL/kg.
Mice were administered vehicle (35% HPBCD), a single dose of Compound 1 (1 mg/kg, 3 mg/kg or 6 mg/kg) or valproate (600 mg/kg). Vehicle and Compound 1 were administered via oral gavage 30 minutes prior to […]. Valproate was administered as an intraperitoneal injection 60 minutes prior to the electrical stimulus.
Immediately prior to conducting the 6-Hz seizure test, a brief neurological assessment was performed. Each animal was visually assessed and received a score from 0 to 3 according to the following scoring system: neurological score of 0 corresponds to a normal status; neurological score of 1 corresponds to a modest decrease in spontaneous activity; neurological score of 2 corresponds to a marked decrease in spontaneous activity; and neurological score of 3 corresponds to loss of righting reflex.
Corneal electrodes moistened with saline (ECT unit 57800; Ugo Basile) were used to deliver the electrical stimulus (6-Hz, 0.2 millisecond pulse width, 3 seconds duration). The current delivered was either 32 mA or 44 mA. Immediately after the electrical stimulus, each mouse was monitored continuously for 30 seconds by an observer blinded to the treatment group. […] Mice were scored for the presence or absence of each seizure behavior, with a maximum total score of 4. […] At the end of the 6-Hz seizure test, plasma and brain samples were collected.
Mice were anesthetized with isoflurane, whole blood was collected via cardiac puncture and brains were harvested. […] Plasma and brain samples were stored at −80° C. and analyzed to determine levels of Compound 1. […]

T1 sequence (Q9UQD0 whole entry): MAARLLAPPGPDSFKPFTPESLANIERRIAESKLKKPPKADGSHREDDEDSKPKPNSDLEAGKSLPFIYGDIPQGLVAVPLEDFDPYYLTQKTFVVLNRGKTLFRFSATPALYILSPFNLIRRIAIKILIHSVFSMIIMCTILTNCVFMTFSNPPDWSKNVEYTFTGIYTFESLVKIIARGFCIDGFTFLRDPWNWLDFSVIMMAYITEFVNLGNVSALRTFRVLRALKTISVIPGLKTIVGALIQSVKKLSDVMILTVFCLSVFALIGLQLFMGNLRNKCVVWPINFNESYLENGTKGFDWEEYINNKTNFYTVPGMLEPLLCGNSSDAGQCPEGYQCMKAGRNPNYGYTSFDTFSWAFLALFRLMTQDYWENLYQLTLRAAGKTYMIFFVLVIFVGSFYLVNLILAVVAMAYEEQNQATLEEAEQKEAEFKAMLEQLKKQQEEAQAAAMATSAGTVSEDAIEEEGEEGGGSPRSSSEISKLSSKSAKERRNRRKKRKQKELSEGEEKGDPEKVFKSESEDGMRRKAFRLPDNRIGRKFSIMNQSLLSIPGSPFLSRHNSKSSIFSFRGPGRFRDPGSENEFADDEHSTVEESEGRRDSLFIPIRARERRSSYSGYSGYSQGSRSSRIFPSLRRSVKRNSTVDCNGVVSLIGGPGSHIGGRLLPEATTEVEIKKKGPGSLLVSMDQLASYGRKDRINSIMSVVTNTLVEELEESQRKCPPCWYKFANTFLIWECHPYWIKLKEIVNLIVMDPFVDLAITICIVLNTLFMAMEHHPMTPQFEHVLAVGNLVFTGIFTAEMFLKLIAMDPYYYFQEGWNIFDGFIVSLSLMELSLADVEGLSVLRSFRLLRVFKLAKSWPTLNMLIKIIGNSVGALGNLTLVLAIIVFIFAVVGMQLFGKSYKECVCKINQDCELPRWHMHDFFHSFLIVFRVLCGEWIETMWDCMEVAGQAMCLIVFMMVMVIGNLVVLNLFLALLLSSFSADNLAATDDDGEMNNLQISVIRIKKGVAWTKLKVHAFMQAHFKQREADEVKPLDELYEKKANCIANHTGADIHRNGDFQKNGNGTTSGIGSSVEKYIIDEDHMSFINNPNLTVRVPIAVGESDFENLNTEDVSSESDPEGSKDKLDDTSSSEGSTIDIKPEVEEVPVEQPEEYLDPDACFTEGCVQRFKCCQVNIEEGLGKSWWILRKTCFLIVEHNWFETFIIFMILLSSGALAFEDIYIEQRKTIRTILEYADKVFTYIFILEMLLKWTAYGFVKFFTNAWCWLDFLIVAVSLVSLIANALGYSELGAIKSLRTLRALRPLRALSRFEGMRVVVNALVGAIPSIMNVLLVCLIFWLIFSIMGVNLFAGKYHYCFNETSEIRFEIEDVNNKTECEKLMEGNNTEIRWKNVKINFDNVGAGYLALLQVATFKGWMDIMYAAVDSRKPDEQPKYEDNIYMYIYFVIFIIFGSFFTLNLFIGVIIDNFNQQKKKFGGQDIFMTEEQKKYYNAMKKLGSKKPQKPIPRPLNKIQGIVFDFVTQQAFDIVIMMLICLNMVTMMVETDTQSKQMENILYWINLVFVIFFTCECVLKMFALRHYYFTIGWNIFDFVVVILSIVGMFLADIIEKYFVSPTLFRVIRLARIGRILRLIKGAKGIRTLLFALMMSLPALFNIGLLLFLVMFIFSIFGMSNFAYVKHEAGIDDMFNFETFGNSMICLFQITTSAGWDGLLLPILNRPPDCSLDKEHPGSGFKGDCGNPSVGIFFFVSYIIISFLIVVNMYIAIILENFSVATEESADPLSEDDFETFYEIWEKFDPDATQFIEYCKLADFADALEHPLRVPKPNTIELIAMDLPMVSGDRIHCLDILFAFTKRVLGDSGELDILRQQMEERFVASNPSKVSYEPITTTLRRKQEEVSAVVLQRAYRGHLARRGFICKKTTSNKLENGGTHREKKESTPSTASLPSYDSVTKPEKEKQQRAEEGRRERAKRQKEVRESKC

Q: With `CCOC(F)(F)c1nnc2ccc(-c3cnc(OCC(F)(F)F)c(F)c3)cn12` [Compound 1] as the compound, how does the “persistent INa preference to TB” value (human Nav1.6 [1]) read?
A: 68 ×

Q: What about the “potency for persistent INa relative to the other tested INa blocking agents” value (human Nav1.6 [1]) of the same compound?
A: at least 550 ×

Q: What about the “inhibition of and preference for persistent INa (in words)” value (human Nav1.6 [1]; hNav1.6) of the same compound?
A: concentration dependent inhibition of late sodium current; also recorded: preference for persistent INa relative to peak INa for all assay conditions; also recorded: potently inhibited ATX-II-induced persistent INa; also recorded: potent inhibition of persistent INa; also recorded: potent inhibitor of persistent INa; also recorded: increased potency for persistent INa relative to standard NaV-targeting ASMs

Q: What about the “Persistent INa Hill slope” value (human Nav1.6 [1]; hNav1.6 in HEK cells) of the same compound?
A: (1.4)

Q: And the “Peak INa TB Ratio to Pers. INa” value (human Nav1.6 [2])?
A: 68

Q: And the “seizure score (in words)” value ([3]; 6 mg/kg p.o., 32 and 44 mA)?
A: significantly reduced the seizure score; also recorded: reduced seizure scores compared to vehicle

Q: And the “incidence of seizures (in words)” value ([3]; 6 mg/kg p.o., 32 mA)?
A: significantly reduced the incidence of seizures

Q: What about the neurological scores ([3]; any dose of Compound 1 (1, 3, 6 mg/kg)) of the same compound?
A: all neurological scores were zero; also recorded: normal
